Experimental data reported in patent publication US9206130B2, “Quinoline derivatives as AXL kinase inhibitors” (Max-Planck-Gesellschaft zur Förderung der Wissenschaften …, priority 2008, dated 2015).

Experiments:
[1] = molecular target: T1, wild type AXL (wtAXL) receptor tyrosine kinase (Homo sapiens, UniProt P30530); test: NIH-3T3-AXL cellular tyrosine kinase assay (inhibition of AXL phosphorylation); assay type: cell-based; conditions: AXL phosphorylation in NIH-3T3-AXL (clone 22) cells, serum-depleted, 2 h with compound, immunoprecipitation / anti-phosphotyrosine blot
T1 construct: WtAXL cDNA was cloned into vector pLXSN(ESK) and transfected into Phoenix E packaging cells; expressed in transfected cells; host or cells: NIH3T3 N7 mouse fibroblasts, retrovirally infected (clone 22)
T1 sequence (P30530 26-894): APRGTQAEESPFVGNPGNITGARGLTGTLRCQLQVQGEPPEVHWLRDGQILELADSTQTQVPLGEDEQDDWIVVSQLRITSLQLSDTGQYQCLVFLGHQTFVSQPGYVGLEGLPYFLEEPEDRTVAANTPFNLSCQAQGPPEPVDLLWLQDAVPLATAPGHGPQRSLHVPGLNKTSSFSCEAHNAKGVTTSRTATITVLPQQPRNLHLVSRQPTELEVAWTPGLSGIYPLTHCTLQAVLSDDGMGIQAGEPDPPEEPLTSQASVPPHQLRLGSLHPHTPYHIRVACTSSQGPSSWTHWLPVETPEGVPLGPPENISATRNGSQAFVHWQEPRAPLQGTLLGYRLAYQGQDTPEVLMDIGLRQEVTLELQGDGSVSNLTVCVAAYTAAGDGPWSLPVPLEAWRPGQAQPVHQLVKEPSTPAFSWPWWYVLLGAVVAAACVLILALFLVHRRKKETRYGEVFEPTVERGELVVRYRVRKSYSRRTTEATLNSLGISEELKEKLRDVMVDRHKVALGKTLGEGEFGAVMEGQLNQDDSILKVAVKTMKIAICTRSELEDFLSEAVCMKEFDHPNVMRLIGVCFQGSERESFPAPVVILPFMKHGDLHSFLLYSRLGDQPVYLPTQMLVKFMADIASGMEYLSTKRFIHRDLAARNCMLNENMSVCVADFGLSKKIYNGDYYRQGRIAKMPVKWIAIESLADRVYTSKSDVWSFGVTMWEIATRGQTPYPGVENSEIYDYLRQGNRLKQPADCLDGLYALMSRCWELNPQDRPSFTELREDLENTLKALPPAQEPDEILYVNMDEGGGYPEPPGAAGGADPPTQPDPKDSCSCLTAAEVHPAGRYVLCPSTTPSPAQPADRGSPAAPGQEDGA
Protocol: 3) Inhibitory Activity of Compounds on Axl Phosphorylation in NIH-3T3-AXL Cellular Tyrosine Kinase Assay
The viral supernatant was collected and used to infect target cells NIH3T3 N7. Monoclonal NIH3T3-AXL cell lines stably expressing wtAXL were generated by selecting retrovirally infected cells in medium containing puromycin (2 μg/ml) and subsequent clonal separation.
NIH-3T3-AXL Cellular Kinase Assay
Serial dilutions of compounds were added, and the cells were further incubated or 2 h. […] The clarified cell lysate (10 min at 13000 rpm at 4° C.) were used for immunoprecipitation. Equal amounts of protein were mixed with 2 μg anti-AXL polyclonal antibody (homemade) and 20 μl Protein A sepharose beads, and rotated for 6 hr at 4° C. After immunoprecipitation, the beads were washed three times with 1×HNTG (50 mM HEPES (pH 7.5), 150 mM NaCl, 10% Glycerol, 0.2% Triton X-100). The final pellet was suspended in 20 μl 2× Laemmli buffer, and boiled for 5 min at 100° C. […] The membrane was then incubated with anti-phosphotyrosine antibody (4G10) overnight at 4° C. followed by washing with 1×TBST buffer three times. After incubating membrane with HRP-conjugated anti-mouse secondary antibody for 1 hour at room temperature followed by washing with 1×TBST buffer three times, the proteins were visualized by ECL.

Row | IC50 [1] [µM] | melting point [°C] | Compound
1 | 0.8 | 231 to 232 | COc1cc2nccc(Oc3ccc(NS(=O)(=O)c4ccc(Br)c(Cl)c4)c(F)c3)c2cc1OC [Example A60, 4-Bromo-3-chloro-N-[4-(6,7-dimethoxy-quinolin-4-yloxy)-2-fluoro-phenyl]-benzenesulfonamide]
2 | 0.7 | 214 to 216 | COc1cc(S(=O)(=O)Nc2ccc(Oc3ccnc4cc(OC)c(OC)cc34)cc2F)ccc1F [Example A61, N-[4-(6,7-Dimethoxy-quinolin-4-yloxy)-2-fluoro-phenyl]-4-fluoro-3-methoxy-benzenesulfonamide]
3 | 0.47 | 158 to 160 | CCOc1ccc(S(=O)(=O)Nc2ccc(Oc3ccnc4cc(OC)c(OC)cc34)cc2F)cc1C [Example A62, N-[4-(6,7-Dimethoxy-quinolin-4-yloxy)-2-fluoro-phenyl]-4-ethoxy-3-methyl-benzenesulfonamide]
4 | > 1 | 226 to 227 | COc1cc2nccc(Oc3ccc(NS(=O)(=O)c4ccc(OC)c5ccccc45)c(F)c3)c2cc1OC [Example A63, 4-Methoxy-naphthalene-1-sulfonic acid [4-(6,7-dimethoxy-quinolin-4-yloxy)-2-fluoro-phenyl]-amide]
5 | > 1 | 238 to 240 | COc1cc2nccc(Oc3ccc(NS(=O)(=O)c4cc(C)c(C)cc4OC)c(F)c3)c2cc1OC [Example A64, N-[4-(6,7-Dimethoxy-quinolin-4-yloxy)-2-fluoro-phenyl]-2-methoxy-4,5-dimethyl-benzenesulfonamide]
6 | > 10 | 134 to 136 | COc1cc2nccc(Oc3ccc(NS(=O)(=O)c4cc(C)ccc4NC(C)=O)cc3)c2cc1OC [Example A65, N-{2-[4-(6,7-Dimethoxy-quinolin-4-yloxy)-phenylsulfamoyl]-4-methyl-phenyl}-acetamide]
7 | > 10 | 145 to 147 | COc1cc2nccc(Oc3ccc(NS(=O)(=O)c4cc(C)c(NC(C)=O)c(C)c4)cc3)c2cc1OC [Example A66, N-{4-[4-(6,7-Dimethoxy-quinolin-4-yloxy)-phenylsulfamoyl]-2,6-dimethyl-phenyl}-acetamide]
8 | > 10 | 226 to 227 | COc1ccc(S(=O)(=O)Nc2ccc(Oc3ccnc4cc(OC)c(OC)cc34)cc2)cc1Cl [Example A67, 3-Chloro-N-[4-(6,7-dimethoxy-quinolin-4-yloxy)-phenyl]-4-methoxy-benzenesulfonamide]
9 | > 10 | 255 to 257 | COc1cc2nccc(Oc3ccc(NS(=O)(=O)c4cc(Cl)ccc4OC)cc3)c2cc1OC [Example A68, 5-Chloro-N-[4-(6,7-dimethoxy-quinolin-4-yloxy)-phenyl]-2-methoxy-benzenesulfonamide]
10 | > 10 | 236 to 238 | COc1cc2nccc(Oc3ccc(NS(=O)(=O)c4cc(Cl)c(C)cc4OC)cc3)c2cc1OC [Example A69, 5-Chloro-N-[4-(6,7-dimethoxy-quinolin-4-yloxy)-phenyl]-2-methoxy-4-methyl-benzenesulfonamide]
11 | > 10 | 229 to 231 | COc1cc2nccc(Oc3ccc(NS(=O)(=O)c4ccc(OC)c(C(C)(C)C)c4)cc3)c2cc1OC [Example A70, 3-tert-Butyl-N-[4-(6,7-dimethoxy-quinolin-4-yloxy)-phenyl]-4-methoxy-benzenesulfonamide]
12 | > 3 | 164 to 166 | CCCCS(=O)(=O)Nc1ccc(Oc2ccnc3cc(OC)c(OC)cc23)cc1F [Example A71, Butane-1-sulfonic acid [4-(6,7-dimethoxy-quinolin-4-yloxy)-2-fluoro-phenyl]-amide]
13 | 0.58 | 175 to 176 | COc1cc2nccc(Oc3ccc(NS(=O)(=O)CC(C)C)c(F)c3)c2cc1OC [Example A72, 2-Methyl-propane-1-sulfonic acid [4-(6,7-dimethoxy-quinolin-4-yloxy)-2-fluoro-phenyl]-amide]
14 | > 3 | 204 to 205 | COc1cc2nccc(Oc3ccc(NS(=O)(=O)Cc4ccccc4)c(F)c3)c2cc1OC [Example A73, N-[4-(6,7-Dimethoxy-quinolin-4-yloxy)-2-fluoro-phenyl]-C-phenyl-methanesulfonamide]
15 | > 1 | 211 to 212 | COc1ccc(S(=O)(=O)Nc2ccc(Oc3ccnc4cc(OC)c(OC)cc34)cc2)cc1Br [Example A74, 3-Bromo-N-[4-(6,7-dimethoxy-quinolin-4-yloxy)-phenyl]-4-methoxy-benzenesulfonamide]
16 | > 3 | 178 to 180 | COc1cc2nccc(Oc3ccc(NS(=O)(=O)c4cccc(-c5ccccc5)c4)cc3C)c2cc1OC [Example A75, Biphenyl-3-sulfonic acid [4-(6,7-dimethoxy-quinolin-4-yloxy)-3-methyl-phenyl]-amide]
17 | > 10 | 115 to 117 | COc1cc2nccc(Oc3ccc(NS(=O)(=O)c4cccc(Oc5ccccc5)c4)cc3C)c2cc1OC [Example A76, N-[4-(6,7-Dimethoxy-quinolin-4-yloxy)-3-methyl-phenyl]-3-phenoxy-benzenesulfonamide]
18 | > 10 | 118 to 120 | COc1cc2nccc(Oc3ccc(NS(=O)(=O)c4cccc5ccccc45)cc3C)c2cc1OC [Example A77, Naphthalene-1-sulfonic acid [4-(6,7-dimethoxy-quinolin-4-yloxy)-3-methyl-phenyl]-amide]
19 | > 3 | 229 to 231 | COc1cc2nccc(Oc3ccc(NS(=O)(=O)c4cccc5cnccc45)cc3)c2cc1OC [Example A78, Isoquinoline-5-sulfonic acid [4-(6,7-dimethoxy-quinolin-4-yloxy)-phenyl]-amide]
20 | 0.48 | 113 to 117 | COc1cc2nccc(Oc3ccc(NS(=O)(=O)c4cc(Cl)cc(Cl)c4O)cc3C)c2cc1OC [Example A79, 3,5-Dichloro-N-[4-(6,7-dimethoxy-quinolin-4-yloxy)-3-methyl-phenyl]-2-hydroxy-benzenesulfonamide]
21 | > 10 | 268 to 269 | COc1cc2nccc(Oc3ccc(NS(=O)(=O)c4cnc(C)[nH]4)cc3)c2cc1OC [Example A80, 2-Methyl-3H-imidazole-4-sulfonic acid [4-(6,7-dimethoxy-quinolin-4-yloxy)-phenyl]-amide]
22 | > 10 | 191 to 194 | COc1cc2nccc(Oc3ccc(NS(=O)(=O)c4ccc(-c5ccccc5)cc4)cc3)c2cc1OC [Example A81, Biphenyl-4-sulfonic acid [4-(6,7-dimethoxy-quinolin-4-yloxy)-phenyl]-amide]
23 | > 1 | 194 to 195 | COc1cc2nccc(Oc3ccc(NS(=O)(=O)c4cccc(-c5ncccn5)c4)cc3)c2cc1OC [Example A82, N-[4-(6,7-Dimethoxy-quinolin-4-yloxy)-phenyl]-3-pyrimidin-2-yl-benzenesulfonamide]
24 | > 3 | 222 to 225 | COc1cc2nccc(Oc3ccc(NS(=O)(=O)c4cc5ccccc5s4)cc3)c2cc1OC [Example A83, Benzo[b]thiophene-2-sulfonic acid [4-(6,7-dimethoxy-quinolin-4-yloxy)-phenyl]-amide]
